PubChem BioAssay AID1963431 (Molecular Pharmacology Branch, DTP, NCI, 2024)
Values joined by “and” are separate entries in the source; they are usually repeats but may differ in a detail not shown here. Equal values may be shown once.

System: Rh18 complex spheroid viability, percent test/control
Assay: Anticancer human tumor Rh18 cell line growth inhibition [Asc];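 further: spheroids exposed to compound for 7 days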;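 on viability, T/C: 100% = DMSO vehicle control wells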
Conditions: for viability, T/C: stronger effect = lower value
Protocol: Multicellular complex tumor spheroid response to apoptosis pathway targeting inhibitors Alrizomadlin, Pelcitoclax, and Dasminapant in combination with a variety of drugs and investigational agents in selected tumor cell lines
The MDM2 inhibitor alrizomadlin, the Bcl-2/Bcl-xL inhibitor pelcitoclax, and the IAPs inhibitor dasminapant were evaluated both individually and in combination with standard of care and investigational anticancer small molecules within a complex spheroid model of solid tumors. . Complex spheroids include a stromal component modeled by human endothelial cells (HUVEC) and fibroblasts modeled by human mesenchymal stem cells (MSCs). The concentration ranges selected for each drug and investigational agent were based upon clinically achievable concentrations if the clinical Cmax of the agent was known.
Compounds. The drugs and investigational agents: alrizomadlin (APG-115; NSC831270), pelcitoclax (APG-1252; NSC835773), dasminapant (APG-1387;NSC834197), TAK-243 (NSC785004), copanlisib (NSC809693), olaparib (NSC753686), talazoparib (NSC767125), cobimetinib (NSC 768068), eltanexor (KPT-8602, NSC 794443), abemaciclib (NSC 768073), sotorasib (NSC818433), adagrasib (NSC 831453), MRTX-1133 (NSC 836407), Iadademestat (ORY1001, NSC 806812), and RMC-4630 (NSC839698), were obtained from the NCI Developmental Therapeutics Program Chemical Repository. The FDA-approved anticancer drug set is available from the Developmental Therapeutics Program at https://dtp.cancer.gov/organization/dscb/obtaining/available plates.htm. […] The stock solutions were prepared in dimethyl sulfoxide (DMSO, Sigma-Aldrich, St. Louis, MO, cat. D2650) at 800-fold the tested concentration and stored at -70 degrees C prior to their use. All drugs and investigational agents were tested over a range starting from a high concentration at or near the clinical Cmax and decreasing in half-log increments. If the clinical Cmax for an agent had not been determined, the highest concentration tested was 10 microM.
The patient-derived cancer (PDC) cell lines include five colon adenocarcinomas: 186277-243-T-J2-PDC, 616215-338-R-J1-PDC, 439559-082-T-J2-PDC, 463943-066-T-J2-PDC, and 519858-162-T-J1-PDC; three pancreatic carcinomas: 323965-272-R-J2-PDC, 521955-158-R6-J3-PDC, and 521955-158-R2-J5-PDC; two uterine sarcomas: 327498-152-R-J2-PDC and 993429-296-R-J1-PDC; two rhabdomyosarcomas: 755483-174-R-J1-PDC and 772245-204-R-J1-PDC; two soft tissue sarcomas: 126254-015-R-J1-PDC and 494315-158-R-J1-PDC; two malignant fibrous histiocytomas: 317291-083-R-J1-PDC and 596521-263-R-J1-PDC; two breast carcinomas: 171881-019-R-J1-PDC and 885512-296-R-J2-PDC; and one ovarian carcinoma: 6556581-035-R-J-PDC were obtained from the NCI PDMR, (https://pdmr.cancer.gov). The established cell lines HSSY-2 synovial sarcoma (RRID:CVCL 8719), SYO-1 synovial sarcoma (RRID:CVCL_7146), MPNST malignant peripheral neural sheath tumor were obtained from the Sloan Kettering Institute. The following established cell lines were purchased from the American Type Culture Collection (ATCC, Manassas, VA), Sor the received from the NCI repository:, PANC-1 pancreatic carcinoma (CRL-1469, RRID:CVCL_0480), OVCAR-5 ovarian carcinoma (RRID:CVCL_1628), OVCAR-8 ovarian carcinoma (RRID:CVCL_1629), , MCF-7 breast carcinoma (CRL-12584, RRID:CVCL_0031), MDA-MB-231 breast carcinoma (CRL-12532, RRID:CVCL_0062), NCI-H1876 small cell lung carcinoma (CRL-5902, RRID:CVCL_1503), NCI-H510A small cell lung carcinoma (HTB-184, RRID:CVCL_1565), NCI-H1417 (CRL-5869, RRID:CVCL_1469), and NCI-H196 small cell lung carcinoma (CRL-5823, RRID:CVCL_1509). Dr. Peter Houghton (Greehey Children's Cancer Research Institute, University of Texas Health Science Center, San Antonio, TX) provided Rh-18 rhabdomyosarcoma (RRID:CVCL_1659). Pooled donor human umbilical vein endothelial cells (HUVEC, Lonza, cat. CC-2519) and human mesenchymal stem cells (hMSC, Lonza, cat. PT-2501) were purchased from Lonza (Walkersville, MD).
Cell Culture. […]

[1] = compound alone, run of 10/11/2022

| SMILES | IC50 (curve of compound) | viability, T/C (compound 0.0316 µM) | viability, T/C (compound 0.1 µM) | viability, T/C (compound 0.316 µM) | viability, T/C (compound 1 µM) | viability, T/C (compound 3.16 µM) | viability, T/C (compound 10 µM) | viability, T/C (compound 0.00316 µM) | viability, T/C (compound 0.01 µM) | also measured |
| --- | --- | --- | --- | --- | --- | --- | --- | --- | --- | --- |
| C#Cc1c(F)ccc2cc(O)cc(-c3ncc4c(N5CC6CCC(C5)N6)nc(OCC56CCCN5CC(F)C6)nc4c3F)c12 (centres undefined) | 8120 nM and > 10000 nM | 79.3% and 89.2% and 129% | 74.3% and 82.3% and 122% | 71.5% and 63.9% and 81.2% | 91.2% and 75.4% and 66.3% | 87.4% and 64.3% and 106% | 43.4% and 60.4% and 67.7% |  |  |  |
| C=C(F)C(=O)N1CCN(c2nc(OCC3CCCN3C)nc3c2CCN(c2cccc4cccc(Cl)c24)C3)CC1CC#N (centres undefined) | 2410 nM and 2320 nM and 2350 nM | 94.1% and 96.8% and 96.1% | 98.8% and 93.5% and 87.2% | 90.9% and 56.4% and 91.5% | 97.4% and 101% and 93.5% | 35.8% and 36.4% and 35.5% | 0.31% and 0.29% and 0.27% |  |  |  |
| CCN1CCN(Cc2ccc(Nc3ncc(F)c(-c4cc(F)c5nc(C)n(C(C)C)c5c4)n3)nc2)CC1 | > 1000 nM | 85.2% and 77.4% and 70.8% | 66.5% and 65.2% and 78.4% | 85.7% and 111% and 72.7% | 143% and 152% and 65.1% |  |  | 88.8% and 66.9% and 96.3% | 115% and 84.9% and 92.1% |  |
| COc1c(OCCCN2CCOCC2)ccc2c3n(c(=NC(=O)c4cnc(N)nc4)nc12)CCN3 | 10.1 nM and 11.8 nM and 11.5 nM | 15.9% and 20.9% and 23.7% | 6.98% and 6.83% and 7.49% | 3.1% and 3.42% and 2.99% | 1.11% and 1.4% and 0.6% |  |  | 64.9% and 91.3% and 71.5% | 50.6% and 55% and 53.8% |  |
| Cc1c(S(C)(=O)=O)c(-c2cc(F)cc(N3CCN(c4ccc(NS(=O)(=O)c5ccc(NC(CCN6CCC(C(=O)OCCCP(=O)(O)O)CC6)CSc6ccccc6)c(S(=O)(=O)C(F)(F)F)c5)cc4)CC3)c2)c(-c2ccc(Cl)cc2)n1C(C)C (centres undefined) |  |  | 14.1% [middle of 14 runs] | 10% [middle of 14 runs] | 9.12% [middle of 13 runs] | 6.19% [middle of 14 runs] | 5.39% [middle of 14 runs] |  |  | IC50 [1]: < 100 nM |
| Cn1ncnc1[C@H]1c2n[nH]c(=O)c3cc(F)cc(c23)N[C@@H]1c1ccc(F)cc1 | 12.9 nM and 10.8 nM and 3.16 nM | 41.5% and 46.6% and 46.8% | 41.6% and 51.8% and 40.3% |  |  |  |  | 79.1% and 73.3% and 49.3% | 51.2% and 49.3% and 46.3% | viability, T/C (compound 0.000316 µM): 113% and 102% and 90.3%; viability, T/C (compound 0.001 µM): 101% and 99.1% and 69.5% |
| NC(=O)C(=Cn1cnc(-c2cc(C(F)(F)F)cc(C(F)(F)F)c2)n1)c1cncnc1 | 38.8 nM and 58.3 nM and 88.7 nM |  |  |  |  |  |  |  |  | viability, T/C (compound 0.000949 µM): 85.9% and 82.9% and 85.5%; viability, T/C (compound 0.003 µM): 93.2% and 85.7% and 79.2%; viability, T/C (compound 0.00949 µM): 92.8% and 63.3% and 67.5%; viability, T/C (compound 0.03 µM): 53.9% and 57.6% and 61%; viability, T/C (compound 0.0949 µM): 40.6% and 46.8% and 52.6%; viability, T/C (compound 0.3 µM): 32.3% and 31.4% and 34.7% |
| NC1CCC(NC2CC2c2ccccc2)CC1 (centres undefined) | > 100 nM | 120% and 98.2% and 110% | 114% and 119% and 102% |  |  |  |  | 124% and 114% and 102% | 120% and 114% and 103% | viability, T/C (compound 0.000316 µM): 135% and 130% and 96.5%; viability, T/C (compound 0.001 µM): 134% and 133% and 98% |

Second part, led by results:

| IC50 (curve of compound) | SMILES | viability, T/C (compound 0.0316 µM) | viability, T/C (compound 0.1 µM) | viability, T/C (compound 0.316 µM) | viability, T/C (compound 1 µM) | viability, T/C (compound 3.16 µM) | viability, T/C (compound 10 µM) | viability, T/C (compound 0.00316 µM) | viability, T/C (compound 0.01 µM) | also measured |
| --- | --- | --- | --- | --- | --- | --- | --- | --- | --- | --- |
| > 10000 nM | C=CC(=O)N1CCN(c2nc(=O)n(-c3c(C)ccnc3C(C)C)c3nc(-c4c(O)cccc4F)c(F)cc23)C(C)C1 (centres undefined) | 117% and 122% and 92.1% | 95.2% and 169% and 115% | 106% and 125% and 109% | 118% (2×) and 104% | 133% and 137% and 106% | 115% and 89.8% and 92% |  |  |  |
| 17.8 nM and 11.6 nM | CCN1C(C(=O)NC23CCC(C(=O)O)(CC2)CC3)C(c2cccc(Cl)c2F)C2(C(=O)Nc3cc(Cl)ccc32)C12CCCCC2 (centres undefined) |  |  |  |  |  |  |  |  | viability, T/C (compound 0.00949 µM): 53.3% and 52.8%; viability, T/C (compound 0.03 µM): 38.3% [middle of 15 runs]; viability, T/C (compound 0.0949 µM): 21.1% [middle of 15 runs]; viability, T/C (compound 0.3 µM): 13% [middle of 15 runs]; viability, T/C (compound 0.949 µM): 9.56% [middle of 15 runs]; viability, T/C (compound 3 µM): 9.14% [middle of 15 runs]; IC50 [1]: < 30 nM |
| 21.6 nM and 33.4 nM | CNC(C)C(=O)NC1CN(S(=O)(=O)c2cccc(S(=O)(=O)N3CCC4CCC(C(=O)NC(c5ccccc5)c5ccccc5)N4C(=O)C(NC(=O)C(C)NC)C3)c2)CCC2CCC(C(=O)NC(c3ccccc3)c3ccccc3)N2C1=O (centres undefined) |  |  |  |  |  |  | 80.3% and 79.9% and 75.9% |  | IC50 (compound alone, run of 11/15/2022): > 1000 nM |
| 65.4 nM and 61.2 nM and 47.5 nM | Cc1nc(N2CCC3(CC2)COC(C)C3N)c(CO)nc1Sc1ccnc(N)c1Cl (centres undefined) |  |  |  |  |  |  |  |  | viability, T/C (compound 0.00949 µM): 73.9% and 66.6% and 93.2%; viability, T/C (compound 0.03 µM): 59.7% and 84% and 54%; viability, T/C (compound 0.0949 µM): 42.7% and 34.4% and 43%; viability, T/C (compound 0.3 µM): 35.3% and 19.2% and 23.9%; viability, T/C (compound 0.949 µM): 25.5% and 25.6% and 19.7%; viability, T/C (compound 3 µM): 13.4% and 15.9% and 15.6% |
| 919 nM and 3840 nM and 2050 nM | O=C(c1cc(Cc2n[nH]c(=O)c3ccccc23)ccc1F)N1CCN(C(=O)C2CC2)CC1 | 108% and 86.4% and 91.5% | 99.5% and 81.7% and 85.2% | 59.4% and 79.7% and 82.2% | 57.3% and 63.1% and 73.7% | 44.9% and 53% and 35.5% | 44.7% and 41.7% and 29.5% |  |  |  |
| 589 nM and 729 nM and 730 nM | O=C(c1ccc(F)c(F)c1Nc1ccc(I)cc1F)N1CC(O)([C@@H]2CCCCN2)C1 | 91.3% and 70.7% and 83.2% | 77.7% and 78.5% and 78% | 85% and 95.7% and 75.4% | 20.7% and 36.6% and 40.9% |  |  | 91.5% and 92.7% and 97.3% | 76.6% and 84.3% and 100% |  |
